In patent US11478498B2, “Topical pharmaceutical formulations containing a low concentration of benzoyl peroxide in suspension in water and a water-miscible organic solvent” (Dow Pharmaceutical Sciences, Inc., priority 2008, dated 2022):

Experiment: Solubility of benzoyl peroxide in organic solvents by HPLC analysis
Type: physicochemical
Conditions: room temperature
Text: An example of a preferred organic solvent for the formulation of the invention is a polyol, also known as a polyhydric alcohol. Representative examples of polyols include glycols and sugar alcohols. Preferred polyols for the formulation of the invention include polyether glycols, such as ethoxydiglycol, and propylene glycol. A preferred water-miscible organic solvent is propylene glycol. The inventors have determined by HPLC analysis that benzoyl peroxide is soluble in 100% propylene glycol at room temperature at a level between 0.2% and 0.3% w/w. A second preferred organic solvent is ethoxydiglycol, such as sold under the tradename Transcutol® (Gattefosse, Saint-Priest, France). It has been determined by HPLC analysis that benzoyl peroxide is soluble in ethoxydiglycol at room temperature at a level of about 4.9%. Another preferred organic solvent is polyethylene glycol, such as PEG 400.

SMILES: O=C(OOC(=O)c1ccccc1)c1ccccc1 [benzoyl peroxide]
- Solubility of benzoyl peroxide in ethoxydiglycol: about 4.9%
